In PubChem BioAssay (NCI):
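Dose response: 5 concentrations. Exposure: 48 h. Format: 96-well plates. Endpoint: linear interpolation; highest concentration if not reached. Here, GI50 denotes the concentration required for 50% inhibition of growth. TGI denotes the concentration required for complete inhibition of growth.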

How the values were obtained:
Test in all cases: NCI tumour cell line growth inhibition, 48 h
786-0 renal = system: 786-0 renal
A498 renal = system: A498 renal
A549 NSCLC = system: A549 NSCLC
ACHN renal = system: ACHN renal
CCRF-CEM leukemia = system: CCRF-CEM leukemia
COLO 205 colon = system: COLO 205 colon
DLD-1 colon = system: DLD-1 colon
DMS 114 small cell lung = system: DMS 114 small cell lung
DMS 273 small cell lung = system: DMS 273 small cell lung
EKVX NSCLC = system: EKVX NSCLC
HCC-2998 colon = system: HCC-2998 colon
HCT-116 colon = system: HCT-116 colon
HCT-15 colon = system: HCT-15 colon
HL-60(TB) leukemia = system: HL-60(TB) leukemia
HOP-62 NSCLC = system: HOP-62 NSCLC
HT29 colon = system: HT29 colon
IGROV1 ovarian = system: IGROV1 ovarian
K-562 leukemia = system: K-562 leukemia
KM12 colon = system: KM12 colon
KM20L2 colon = system: KM20L2 colon
LOX IMVI melanoma = system: LOX IMVI melanoma
LXFL 529 NSCLC = system: LXFL 529 NSCLC
M14 melanoma = system: M14 melanoma
M19-MEL melanoma = system: M19-MEL melanoma
MALME-3M melanoma = system: MALME-3M melanoma
NCI-H226 lung = system: NCI-H226 lung
NCI-H23 lung = system: NCI-H23 lung
NCI-H460 lung = system: NCI-H460 lung
NCI-H522 lung = system: NCI-H522 lung
OVCAR-3 ovarian = system: OVCAR-3 ovarian
OVCAR-4 ovarian = system: OVCAR-4 ovarian
OVCAR-5 ovarian = system: OVCAR-5 ovarian
OVCAR-8 ovarian = system: OVCAR-8 ovarian
RPMI-8226 leukemia = system: RPMI-8226 leukemia
RXF 393 renal = system: RXF 393 renal
SF-268 CNS = system: SF-268 CNS
SF-295 CNS = system: SF-295 CNS
SF-539 CNS = system: SF-539 CNS
SK-MEL-2 melanoma = system: SK-MEL-2 melanoma
SK-MEL-28 melanoma = system: SK-MEL-28 melanoma
SK-MEL-5 melanoma = system: SK-MEL-5 melanoma
SK-OV-3 ovarian = system: SK-OV-3 ovarian
SN12C renal = system: SN12C renal
SNB-19 CNS = system: SNB-19 CNS
SNB-75 CNS = system: SNB-75 CNS
SNB-78 CNS = system: SNB-78 CNS
SR leukemia = system: SR leukemia
SW-620 colon = system: SW-620 colon
TK-10 renal = system: TK-10 renal
U251 CNS = system: U251 CNS
UACC-257 melanoma = system: UACC-257 melanoma
UACC-62 melanoma = system: UACC-62 melanoma
UO-31 renal = system: UO-31 renal
XF 498 CNS = system: XF 498 CNS
BT-549 breast = system: BT-549 breast
CAKI-1 renal = system: CAKI-1 renal
DU-145 prostate = system: DU-145 prostate
HOP-92 NSCLC = system: HOP-92 NSCLC
HS 578T breast = system: HS 578T breast
MCF7 breast = system: MCF7 breast
MDA-MB-231 breast = system: MDA-MB-231 breast
MDA-MB-435 = system: MDA-MB-435
MDA-N = system: MDA-N
MOLT-4 leukemia = system: MOLT-4 leukemia
NCI/ADR-RES ovarian = system: NCI/ADR-RES ovarian
PC-3 prostate = system: PC-3 prostate
T-47D breast = system: T-47D breast

Structure (SMILES): S=C=NCCc1ccccc1
- TGI (786-0 renal): 1.05 µM
- TGI (A498 renal): 2 µM
- TGI (A549 NSCLC): 6.38 µM
- TGI (ACHN renal): 3 µM
- TGI (CCRF-CEM leukemia): 4.25 µM
- TGI (COLO 205 colon): 3.07 µM
- TGI (DLD-1 colon): 0.324 µM
- TGI (DMS 114 small cell lung): 1.97 µM
- TGI (DMS 273 small cell lung): 1.1 µM
- TGI (EKVX NSCLC): 30.4 µM
- TGI (HCC-2998 colon): 1.54 µM
- TGI (HCT-116 colon): 1.74 µM
- TGI (HCT-15 colon): 1.12 µM
- TGI (HL-60(TB) leukemia): 2.65 µM
- TGI (HOP-62 NSCLC): 1.35 µM
- TGI (HT29 colon): 0.554 µM
- TGI (IGROV1 ovarian): 1.37 µM
- TGI (K-562 leukemia): > 64.1 µM
- TGI (KM12 colon): 1.48 µM
- TGI (KM20L2 colon): 6.68 µM
- TGI (LOX IMVI melanoma): 0.66 µM
- TGI (LXFL 529 NSCLC): 0.774 µM
- TGI (M14 melanoma): 1.94 µM
- TGI (M19-MEL melanoma): 2.95 µM
- TGI (MALME-3M melanoma): 2.51 µM
- TGI (NCI-H226 lung): 2.88 µM
- TGI (NCI-H23 lung): 1.31 µM
- TGI (NCI-H460 lung): 0.765 µM
- TGI (NCI-H522 lung): 0.58 µM
- TGI (OVCAR-3 ovarian): 2.09 µM
- TGI (OVCAR-4 ovarian): 6.33 µM
- TGI (OVCAR-5 ovarian): 2.96 µM
- TGI (OVCAR-8 ovarian): 5.57 µM
- TGI (RPMI-8226 leukemia): 2.04 µM
- TGI (RXF 393 renal): 1.42 µM
- TGI (SF-268 CNS): 3.65 µM
- TGI (SF-295 CNS): 3.47 µM
- TGI (SF-539 CNS): 0.532 µM
- TGI (SK-MEL-2 melanoma): 0.928 µM
- TGI (SK-MEL-28 melanoma): 2.27 µM
- TGI (SK-MEL-5 melanoma): 1.39 µM
- TGI (SK-OV-3 ovarian): 3.24 µM
- TGI (SN12C renal): 0.987 µM
- TGI (SNB-19 CNS): 7.85 µM
- TGI (SNB-75 CNS): 11.8 µM
- TGI (SNB-78 CNS): 5.78 µM
- TGI (SR leukemia): 86.9 µM
- TGI (SW-620 colon): 1.08 µM
- TGI (TK-10 renal): 3.34 µM
- TGI (U251 CNS): 2.22 µM
- TGI (UACC-257 melanoma): 2.75 µM
- TGI (UACC-62 melanoma): 2.52 µM
- TGI (UO-31 renal): 3.94 µM
- TGI (XF 498 CNS): 5.35 µM

Structure (SMILES): Nc1nc(N)c2cc(Sc3cccc(C(F)(F)F)c3)ccc2n1
- TGI (786-0 renal): 5.38 µM
- GI50 (A498 renal): 2.17 µM
- TGI (A498 renal): 14.4 µM
- TGI (A549 NSCLC): 13.2 µM
- TGI (ACHN renal): 14.7 µM
- TGI (BT-549 breast): 20.5 µM
- TGI (CAKI-1 renal): 16.7 µM
- TGI (CCRF-CEM leukemia): 15.3 µM
- TGI (COLO 205 colon): 3.02 µM
- TGI (DU-145 prostate): 14.4 µM
- TGI (EKVX NSCLC): 19.8 µM
- TGI (HCC-2998 colon): 2.83 µM
- TGI (HCT-116 colon): 1.33 µM
- TGI (HCT-15 colon): 12.7 µM
- TGI (HL-60(TB) leukemia): 3.24 µM
- TGI (HOP-62 NSCLC): 15.9 µM
- TGI (HOP-92 NSCLC): 9.54 µM
- TGI (HS 578T breast): 10.2 µM
- TGI (HT29 colon): 8.16 µM
- TGI (IGROV1 ovarian): 15.6 µM
- TGI (K-562 leukemia): 1.92 µM
- TGI (KM12 colon): 11.3 µM
- GI50 (LOX IMVI melanoma): 0.307 µM
- TGI (LOX IMVI melanoma): 1.82 µM
- TGI (M14 melanoma): 2.21 µM
- TGI (MALME-3M melanoma): 2.91 µM
- TGI (MCF7 breast): 16.2 µM
- TGI (MDA-MB-231 breast): 7.14 µM
- TGI (MDA-MB-435): 5.81 µM
- TGI (MDA-N): 13.9 µM
- TGI (MOLT-4 leukemia): 6.08 µM
- GI50 (NCI-H226 lung): 2.34 µM
- TGI (NCI-H226 lung): 8.15 µM
- TGI (NCI-H23 lung): 16.4 µM
- TGI (NCI-H460 lung): 4.77 µM
- TGI (NCI-H522 lung): 8.34 µM
- TGI (NCI/ADR-RES ovarian): 14.8 µM
- TGI (OVCAR-3 ovarian): 13.6 µM
- TGI (OVCAR-4 ovarian): 18.6 µM
- TGI (OVCAR-5 ovarian): 16.3 µM
- GI50 (OVCAR-8 ovarian): 0.713 µM
- TGI (OVCAR-8 ovarian): 4.55 µM
- GI50 (PC-3 prostate): 0.698 µM
- TGI (PC-3 prostate): 14.9 µM
- TGI (RPMI-8226 leukemia): 5.43 µM
- GI50 (RXF 393 renal): 1.01 µM
- TGI (RXF 393 renal): 2.53 µM
- TGI (SF-268 CNS): 19 µM
- TGI (SF-295 CNS): 8.97 µM
- TGI (SF-539 CNS): 13.9 µM
- TGI (SK-MEL-2 melanoma): 5.25 µM
- TGI (SK-MEL-28 melanoma): 7.61 µM
- TGI (SK-MEL-5 melanoma): 5.86 µM
- TGI (SK-OV-3 ovarian): 21 µM
- TGI (SN12C renal): 15.7 µM
- TGI (SNB-19 CNS): 18.4 µM
- TGI (SNB-75 CNS): 15.9 µM
- TGI (SR leukemia): 4.71 µM
- GI50 (SW-620 colon): 0.267 µM
- TGI (SW-620 colon): 1.57 µM
- GI50 (T-47D breast): 1.71 µM
- TGI (T-47D breast): 3.6 µM
- TGI (TK-10 renal): 14 µM
- TGI (U251 CNS): 4.78 µM
- GI50 (UACC-257 melanoma): 1.27 µM
- TGI (UACC-257 melanoma): 3.36 µM
- TGI (UACC-62 melanoma): 5.49 µM
- TGI (UO-31 renal): 9.84 µM
